System: mGγ12 mRNA
Assay: Northern blot analysis of mGγ12 mRNA in liver of estrogen-treated mice
Format: in vivo, mouse
Details: liver RNA; normal male mice treated with estrogen vs ERKO male mice treated with estrogen and un-treated male mice; effect via estrogen receptor alpha, not beta
Experimental: Expressed sequence tags (EST) that represent messenger RNA (mRNA) molecules that are more abundant in the liver of normal male mice treated with estrogen than in the liver of estrogen receptor alpha knockout (ERKO) male mice also treated with estrogen were obtained by subtraction cloning. The DNA sequence of complementary DNA (cDNA) clones representing the full-length mRNA molecules corresponding to one of the above mentioned EST's was obtained.
Northern blot analysis was conducted with RNA prepared from the livers of normal male mice treated with estrogen, ERKO male mice treated with estrogen, and un-treated male mice using a hybridization probe derived from the mGγ12 cDNA.

With estrogen the “transcription of the mGγ12 gene in the liver” value was “activated”.

Reference: patent US20030118990A1, “Novel estrogen-regulated G protein gamma subunit: compositions and methods of use” (Schering Aktiengesellschaft, priority 2000, published 2003)
